± gives the uncertainty stated by the source.
Assay: xn = mol fraction of the nth substance listed

Question: What does the source list for `CCCC[n+]1ccn(C)c1.O=S(=O)([N-]S(=O)(=O)C(F)(F)F)C(F)(F)F` + CN(C)c1ccccc1?
Answer: viscosity (288.15 K, 100 kPa, x2 = 0): 78.4 ± 3.5 mPa·s; viscosity (293.15 K, 100 kPa, x2 = 0): 61.5 ± 2.7 mPa·s; viscosity (298.15 K, 100 kPa, x2 = 0): 49.1 ± 2.2 mPa·s; viscosity (303.15 K, 100 kPa, x2 = 0): 39.9 ± 1.8 mPa·s; viscosity (308.15 K, 100 kPa, x2 = 0): 33.2 ± 1.5 mPa·s; viscosity (313.15 K, 100 kPa, x2 = 0): 27.7 ± 1.2 mPa·s; viscosity (318.15 K, 100 kPa, x2 = 0): 23.5 ± 1 mPa·s; viscosity (323.15 K, 100 kPa, x2 = 0): 20.13 ± 0.89 mPa·s; viscosity (328.15 K, 100 kPa, x2 = 0): 17.39 ± 0.77 mPa·s; viscosity (333.15 K, 100 kPa, x2 = 0): 15.2 ± 0.67 mPa·s

Question: With `Cn1cc[nH+]c1.[Cl-]` + [Cl][Al]([Cl])[Cl] as the compound, how does the electrical conductivity (303.15 K, 101 kPa, x2 = 0.667) read?
Answer: 0.709 ± 0.007 S/m

Question: And the viscosity (303.15 K, 101 kPa, x2 = 0.667)?
Answer: 32.79 ± 0.48 mPa·s

Question: What about the electrical conductivity (313.15 K, 101 kPa, x2 = 0.643) of the same compound?
Answer: 0.782 ± 0.008 S/m

Question: And the viscosity (313.15 K, 101 kPa, x2 = 0.643)?
Answer: 31.87 ± 0.44 mPa·s

Question: For `CCCC[n+]1ccn(C)c1.O=S(=O)([N-]S(=O)(=O)C(F)(F)F)C(F)(F)F` + CCCC[n+]1ccn(C)c1.N#C[C-](C#N)C#N, which viscosity (283.15 K, 100 kPa, x1 = 1) is on record?
Answer: 106.8 ± 5.5 mPa·s

Question: And the viscosity (288.15 K, 100 kPa, x1 = 1)?
Answer: 82.2 ± 4.2 mPa·s

Question: And the viscosity (293.15 K, 100 kPa, x1 = 1)?
Answer: 64.5 ± 3.3 mPa·s

Question: What about the viscosity (298.15 K, 100 kPa, x1 = 1) of the same compound?
Answer: 51.6 ± 2.6 mPa·s

Question: What about the viscosity (303.15 K, 100 kPa, x1 = 1) of the same compound?
Answer: 41.9 ± 2.1 mPa·s

Question: What about the viscosity (308.15 K, 100 kPa, x1 = 1) of the same compound?
Answer: 34.6 ± 1.7 mPa·s

Question: And the viscosity (313.15 K, 100 kPa, x1 = 1)?
Answer: 28.9 ± 1.5 mPa·s

Question: What about the viscosity (318.15 K, 100 kPa, x1 = 1) of the same compound?
Answer: 24.5 ± 1.2 mPa·s

Question: What about the viscosity (323.15 K, 100 kPa, x1 = 1) of the same compound?
Answer: 20.9 ± 1.1 mPa·s

Question: And the viscosity (328.15 K, 100 kPa, x1 = 1)?
Answer: 18.05 ± 0.91 mPa·s

Question: And the viscosity (333.15 K, 100 kPa, x1 = 1)?
Answer: 15.72 ± 0.79 mPa·s

Question: And the viscosity (338.15 K, 100 kPa, x1 = 1)?
Answer: 13.8 ± 0.69 mPa·s

Question: And the viscosity (343.15 K, 100 kPa, x1 = 1)?
Answer: 12.2 ± 0.61 mPa·s

Question: And the viscosity (348.15 K, 100 kPa, x1 = 1)?
Answer: 10.86 ± 0.55 mPa·s

Question: What about the viscosity (353.15 K, 100 kPa, x1 = 1) of the same compound?
Answer: 9.72 ± 0.49 mPa·s

Question: What about the viscosity (358.15 K, 100 kPa, x1 = 1) of the same compound?
Answer: 8.75 ± 0.44 mPa·s

Question: What about the viscosity (363.15 K, 100 kPa, x1 = 1) of the same compound?
Answer: 7.93 ± 0.4 mPa·s

Question: Which electrical conductivity (298 K, 100 kPa, x1 = 0.02) does the source give for `CCCC[n+]1ccn(C)c1.O=S(=O)([N-]S(=O)(=O)C(F)(F)F)C(F)(F)F` + CCCO here?
Answer: 0.137 ± 0.0014 S/m

Question: And the viscosity (298 K, 100 kPa, x1 = 0.05)?
Answer: 2.742 ± 0.016 mPa·s

Question: What about the electrical conductivity (298 K, 100 kPa, x1 = 0.06) of the same compound?
Answer: 0.348 ± 0.0035 S/m

Question: What about the electrical conductivity (298 K, 100 kPa, x1 = 0.07) of the same compound?
Answer: 0.3949 ± 0.0039 S/m

Question: And the electrical conductivity (298 K, 100 kPa, x1 = 0.1)?
Answer: 0.5104 ± 0.0051 S/m

Question: What about the viscosity (298 K, 100 kPa, x1 = 0.1) of the same compound?
Answer: 3.685 ± 0.024 mPa·s

Question: What about the viscosity (298 K, 100 kPa, x1 = 0.1996) of the same compound?
Answer: 5.689 ± 0.047 mPa·s

Question: And the electrical conductivity (298 K, 100 kPa, x1 = 0.2)?
Answer: 0.7444 ± 0.0074 S/m

Question: And the electrical conductivity (298 K, 100 kPa, x1 = 0.3)?
Answer: 0.8144 ± 0.0081 S/m

Question: And the viscosity (298 K, 100 kPa, x1 = 0.3005)?
Answer: 8.179 ± 0.084 mPa·s

Question: What about the viscosity (298 K, 100 kPa, x1 = 0.3996) of the same compound?
Answer: 11.32 ± 0.14 mPa·s

Question: And the electrical conductivity (298 K, 100 kPa, x1 = 0.4)?
Answer: 0.804 ± 0.08 S/m

Question: What about the viscosity (298 K, 100 kPa, x1 = 0.4995) of the same compound?
Answer: 15.01 ± 0.22 mPa·s

Question: What about the electrical conductivity (298 K, 100 kPa, x1 = 0.5) of the same compound?
Answer: 0.7509 ± 0.0075 S/m

Question: What about the viscosity (298 K, 100 kPa, x1 = 0.5478) of the same compound?
Answer: 17.08 ± 0.27 mPa·s

Question: And the electrical conductivity (298 K, 100 kPa, x1 = 0.6)?
Answer: 0.686 ± 0.0069 S/m

Question: And the viscosity (298 K, 100 kPa, x1 = 0.6957)?
Answer: 24.54 ± 0.47 mPa·s

Question: What about the electrical conductivity (298 K, 100 kPa, x1 = 0.7) of the same compound?
Answer: 0.6239 ± 0.0062 S/m

Question: And the electrical conductivity (298 K, 100 kPa, x1 = 0.8)?
Answer: 0.5324 ± 0.0053 S/m

Question: And the viscosity (298 K, 100 kPa, x1 = 0.8024)?
Answer: 32.15 ± 0.69 mPa·s

Question: And the electrical conductivity (298 K, 100 kPa, x1 = 0.9)?
Answer: 0.461 ± 0.046 S/m

Question: What about the viscosity (298 K, 100 kPa, x1 = 0.9018) of the same compound?
Answer: 40.15 ± 0.95 mPa·s

Question: And the viscosity (298 K, 100 kPa, x1 = 1)?
Answer: 49.7 ± 1.3 mPa·s

— the CheMixHub ionic liquid set
